In patent US20260240878A1, “PTP1B/TC-PTP DUAL INHIBITORS AND PROTEIN DEGRADERS” (Purdue Research Foundation, priority 2023, published 2026):
*1 amine or outer side, *2 acyl side, *3 side chain or, on linkers, in order; H or OH if unused. Where a SMILES comes first, the peptide text is derived from it. [ ]: non-standard residue; d: D form. The star is where a group is joined. NHBn(4-(4-Me-thiazol-5-yl)) = Cc1ncsc1-c1ccc(CN*)cc1; NHCH2(1,3-C6H4)CH2CO = O=C(Cc1cccc(CN[*:1])c1)[*:2]; F2Pmp = N[C@@H](Cc1ccc(C(F)(F)P(=O)(O)O)cc1)C(=O)O; Phenylacetyl(4-OH,3-OMe) = COc1cc(CC(=O)*)ccc1O; Benzoyl(3-Br,4-Me) = Cc1ccc(C(=O)*)cc1Br; X1 = Cc1ncsc1-c1ccc([C@H](C)N*)cc1; cisHyp = O=C(O)[C@@H]1C[C@H](O)CN1; Hyp = O=C(O)[C@@H]1C[C@@H](O)CN1; dHyp = O=C(O)[C@H]1C[C@H](O)CN1; dTle = CC(C)(C)[C@@H](N)C(=O)O; Tle = CC(C)(C)[C@H](N)C(=O)O; Cbz = O=C(OCc1ccccc1)*; Aoc = NCCCCCCCC(=O)O; Ahx = NCCCCCC(=O)O

Legend:
[1] = test system: compound 47-mediated PTP1B and TC-PTP degradation; experiment: Degradation mechanism verification in HEK293 cells (pretreatment with pathway blockers); type: cell-based; details: pretreatment then 100 nM compound 47 for 4 hours
Experimental: Cells were pre-treated with indicated concentration of MLN4924 (prevents ubiquitination), MG132 (blocks proteasome activity), lenalidomide (prevents CRBN binding) or (S,R,S)-AHPC-Me (prevents VHL binding) followed by 4 hours of treatment with compound 47 at 100 nM showing compound 47-mediated PTP1B/TC-PTP degradation depends on the ubiquitination-proteasome pathway. No degradation was observed when cells were treated with 100 nM cis-compound 47 (inactivated degrader) for 4 hours.
PROTAC-mediated protein degradation requires the obligatory formation of afunctional ternary complex of target protein-PROTAC-E3 ligase to enable target protein ubiquitination by the E3 ligase, followed by proteasomal degradation. The VHL E3 ligase dependency for compound 47 induced PTP1B and TC-PTP degradation was confirmed by preparing cis-isomer of compound 47 (cis-47) in which the VHL E3 ligand was replaced with (S,S,S)-AHPC-Me, an epimer of (S,R,S)-AHPC-Me with diminished affinity for VHL. […] Moreover, the addition of the VHL ligand (S,R,S)-AHPC-Me reduced the compound 47-mediated degradation of the two proteins (FIG. 6A). In contrast, pretreatment of the cell with lenalidomide, a ligand for cereblon (another E3 ligase commonly employed for PROTAC development), had no effect on compound 47-mediated PTP1B and TC-PTP degradation (FIG. 6A). […] The compound 47 mediated PTP1B and TC-PTP degradation and proteasome dependency were also verified by immunofluorescent imaging (FIGS. 6B and 6C).

pSTAT1 = experiment: STAT1 phosphorylation in IFN-γ stimulated HEK293 cells (western blot); type: cell-based; details: Homo sapiens; HEK293 cells, 16 hours, 20 ng/ml IFN-γ; read-out: EC50 of pSTAT1 activation
Experimental: Wild-type HEK293 cells were treated with compound 47 or ABBV-CLS-484 for 16 hours, and stimulated with 20 ng/ml IFN-γ to induce JAK-STAT signaling pathway activation.
Abbvie and Calico developed a potent PTP1B/TC-PTP inhibitor ABBV-CLS-484 (disclosed in International PCT application WO2019246513), and it is currently being evaluated as a treatment for locally advanced or metastatic tumors (NCT04777994).

PTP1B [2] = biological target: T1, PTP1B (Homo sapiens, UniProt P18031); experiment: Degradation assay in HEK293 cells (immunoblotting); type: cell-based; design: Degradation assay was conducted in HEK293 cells with 1 μM degrader and 24 hours incubation; endogenous in cells; host or cells: HEK293; details: 1 μM degrader, 24 hours
T1 sequence (P18031 1-435): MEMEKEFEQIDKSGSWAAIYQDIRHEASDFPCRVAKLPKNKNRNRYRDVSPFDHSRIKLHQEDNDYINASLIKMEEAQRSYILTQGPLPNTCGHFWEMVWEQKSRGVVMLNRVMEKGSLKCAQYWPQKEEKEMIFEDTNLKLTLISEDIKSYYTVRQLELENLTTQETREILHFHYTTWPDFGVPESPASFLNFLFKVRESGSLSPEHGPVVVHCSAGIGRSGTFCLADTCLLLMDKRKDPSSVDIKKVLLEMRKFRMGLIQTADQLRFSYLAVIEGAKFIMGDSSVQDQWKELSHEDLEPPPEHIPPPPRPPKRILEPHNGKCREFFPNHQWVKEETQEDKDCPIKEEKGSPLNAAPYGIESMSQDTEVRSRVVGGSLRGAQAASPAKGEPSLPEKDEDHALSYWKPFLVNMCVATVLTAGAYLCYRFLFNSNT
Experimental: (§1) HEK293. MIAPaCa-2, HepG2, U2OS, H116, MEF, B16F10, and MC38 cells, were grown in DMEM, while Jurkat and H358 cells were grown in RPMI 1640 supplemented with 10% fetal bovine serum, penicillin (50 units/mL), and streptomycin (50 μg/mL) in a 37° C. incubator containing 5% CO2. 20 ng/ml human (Biolegend #713906) or mouse (Biolegend #714006) Interferon-γ were used for JAK/STAT pathway stimulation.
(§2) Tissues or cultured cells were lysed with ice-cold lysis buffer (50 mM Tris (pH 8.0, 150 mM NaCl, 10% Glycerol, 1% Triton-X-100) supplied with phosphatase inhibitor (Bimake) and protease inhibitor mixture (Roche Applied Science). Equal amounts of protein were resolved by SDS-PAGE, transferred to nitrocellulose membrane, and subjected to immunoblotting. Antibodies used in this study include anti-following proteins: pSTAT1^Tyr701 (Cell Signaling Technology #9167, 1:3000), GAPDH (Cell Signaling Technology #97166, 1:5000), pJAK1^Tyr1034/1035 (Cell Signaling Technology #74129, 1:1000), pJAK2^Tyr1007/1008 (Cell Signaling Technology #3776, 1:1000), TC-PTP (Abcam #ab180764, 1:3000). PTP1B (Abcam #ab244207, 1:1500).
(§3) Degradation assay was conducted in HEK293 cells with 1 μM degrader and 24 hours incubation.
(§4) The degradation assay was conducted in HEK293 cells with 0.2 μM degrader and 16 hours incubation.

TC-PTP [3] = biological target: T2, TC-PTP (Homo sapiens, UniProt P17706); experiment: Degradation assay in HEK293 cells (immunoblotting); type: cell-based; design: Degradation assay was conducted in HEK293 cells with 1 μM degrader and 24 hours incubation; endogenous in cells; host or cells: HEK293; details: 1 μM degrader, 24 hours, read-out: % Protein Degradation TC-PTP
T2 sequence (P17706 1-415): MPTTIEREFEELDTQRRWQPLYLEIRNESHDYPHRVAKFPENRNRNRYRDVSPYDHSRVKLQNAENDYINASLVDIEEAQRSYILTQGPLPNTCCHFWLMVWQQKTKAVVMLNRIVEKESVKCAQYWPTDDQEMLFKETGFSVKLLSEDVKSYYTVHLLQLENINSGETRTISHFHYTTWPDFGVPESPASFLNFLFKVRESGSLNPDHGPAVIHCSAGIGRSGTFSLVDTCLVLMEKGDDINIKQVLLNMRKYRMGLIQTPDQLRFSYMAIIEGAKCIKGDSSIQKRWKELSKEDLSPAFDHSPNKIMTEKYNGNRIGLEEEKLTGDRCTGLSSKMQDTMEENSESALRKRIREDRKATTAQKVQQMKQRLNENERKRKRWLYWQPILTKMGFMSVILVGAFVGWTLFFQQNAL
Experimental: as §1, §2, §3, §4

PTP1B [4] = biological target: T1, PTP1B; experiment: PTP activity assay with pNPP substrate (IC50, Ki, mode of inhibition); type: biochemical; details: pNPP 2 mM, pH 7.0, 25° C.; read-out: IC50, nM PTP1B
Summary of the method: (§5)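 Hydrolysis of pNPP measured spectrophotometrically in pH 7.0 DMG buffer (EDTA, NaCl, DTT, BSA) at 25 °C, 0.4 nM enzyme. IC50 at 2 mM pNPP (Km) over an inhibitor titration; mode of inhibition and Ki from rates across varied pNPP and inhibitor levels, fitted to enzyme kinetic models.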

TC-PTP [5] = biological target: T2, TC-PTP; experiment: as above; type: biochemical; details: pNPP 2 mM, pH 7.0, 25° C.; read-out: IC50, nM TC-PTP
Summary of the method: as §5

PTP1B [6] = biological target: T1, PTP1B; experiment: Degradation assay in HEK293 cells (immunoblotting); type: cell-based; design: endogenous in cells; host or cells: HEK293; details: 0.2 μM degrader, 16 hours
TC-PTP [7] = biological target: T2, TC-PTP; experiment: Degradation assay in HEK293 cells (immunoblotting); type: cell-based; design: endogenous in cells; host or cells: HEK293; details: 0.2 μM degrader, 16 hours, read-out: % Protein Degradation TC-PTP
TC-PTP [8] = biological target: T2, TC-PTP; experiment: Degradation assay in HEK293 cells (immunoblotting); type: cell-based; design: Degradation assay was conducted in HEK293 cells with 1 μM degrader and 24 hours incubation; endogenous in cells; host or cells: HEK293; details: 100 nM, 4 hours
PTP1B [9] = biological target: T1, PTP1B; experiment: Degradation assay in HEK293 cells (immunoblotting); type: cell-based; design: Degradation assay was conducted in HEK293 cells with 1 μM degrader and 24 hours incubation; endogenous in cells; host or cells: HEK293; details: 100 nM, 4 hours

Structure (SMILES): Cc1ncsc1-c1ccc([C@H](C)NC(=O)[C@@H]2C[C@@H](O)CN2C(=O)[C@@H](N)C(C)(C)C)cc1 [(S,R,S)-AHPC-Me]
- effect of pretreatment on compound 47-mediated PTP1B and TC-PTP degradation [1]: reduced

Structure (SMILES): CC(C)CCN[C@@H]1CCc2cc(O)c(N3CC(=O)NS3(=O)=O)c(F)c2C1 [ABBV-CLS-484, reference compound]
- EC50 (pSTAT1): 79.7 nM

Structure (SMILES): COc1cc(CC(=O)N[C@@H](Cc2ccccc2)C(=O)N[C@@H](Cc2ccc(C(F)(F)P(=O)(O)O)cc2)C(=O)N[C@@H](CCCCNC(=O)c2ccc(C)c(Br)c2)C(=O)NCCCCCC(=O)N[C@H](C(=O)N2C[C@H](O)C[C@H]2C(=O)NCc2ccc(-c3scnc3C)cc2)C(C)(C)C)ccc1O [Compound 8, ((4-((S)-3-(((S)-6-(3-bromo-4-methylbenzamido)-1-((6-(((S)-1-((2S,4R)-4-hydroxy-2-((4-(4-methylthiazol-5-yl)benzyl)carbamoyl)pyrrolidin-1-yl)-3,3-dimethyl-1-oxobutan-2-yl)amino)-6-oxohexyl)amino)-1-oxohexan-2-yl)amino)-2-((S)-2-(2-(4-hydroxy-3-methoxyphenyl)acetamido)-3-phenylpropanamido)-3-oxopropyl)phenyl)difluoromethyl)phosphonic Acid] ({Phenylacetyl(4-OH,3-OMe)}-F[F2Pmp]K(Benzoyl(3-Br,4-Me))[Ahx][Tle][Hyp]-{NHBn(4-(4-Me-thiazol-5-yl))})
- % Protein Degradation PTP1B (PTP1B [2]): 81%
- percent TC-PTP degradation at 1 µM (TC-PTP [3]): 83%
- IC50 (PTP1B [4]): 16.7 ± 0.9 nM
- IC50 (TC-PTP [5]): 12.8 ± 3.7 nM
- % Protein Degradation PTP1B (PTP1B [6]): 61%
- percent TC-PTP degradation at 0.2 µM (TC-PTP [7]): 58%

Structure (SMILES): COc1cc(CC(=O)N[C@@H](Cc2ccccc2)C(=O)N[C@@H](Cc2ccc(C(F)(F)P(=O)(O)O)cc2)C(=O)N[C@@H](CCCCNC(=O)c2ccc(C)c(Br)c2)C(=O)NCCCCCCCC(=O)N[C@@H](C(=O)N2C[C@@H](O)C[C@@H]2C(=O)NCc2ccc(-c3scnc3C)cc2)C(C)(C)C)ccc1O [Compound 83, ((4-((S)-3-(((S)-6-(3-bromo-4-methylbenzamido)-1-((8-(((R)-1-((2R,4S)-4-hydroxy-2-((4-(4-methylthiazol-5-yl)benzyl)carbamoyl)pyrrolidin-1-yl)-3,3-dimethyl-1-oxobutan-2-yl)amino)-8-oxooctyl)amino)-1-oxohexan-2-yl)amino)-2-((S)-2-(2-(4-hydroxy-3-methoxyphenyl)acetamido)-3-phenylpropanamido)-3-oxopropyl)phenyl)difluoromethyl)phosphonic Acid] ({Phenylacetyl(4-OH,3-OMe)}-F[F2Pmp]K(Benzoyl(3-Br,4-Me))[Aoc][dTle][dHyp]-{NHBn(4-(4-Me-thiazol-5-yl))})
- % Protein Degradation PTP1B (PTP1B [2]): 58%
- percent TC-PTP degradation at 1 µM (TC-PTP [3]): 66%
- IC50 (PTP1B [4]): 19 ± 1.9 nM
- IC50 (TC-PTP [5]): 10.6 ± 0.3 nM

Structure (SMILES): CC(C)C[C@@H](C=O)NC(=O)[C@H](CC(C)C)NC(=O)[C@H](CC(C)C)NC(=O)OCc1ccccc1 [MG-132] (Cbz-Leu-Leu-Leu-aldehyde)
- effect of pretreatment on compound 47-mediated PTP1B and TC-PTP degradation [1]: markedly reduced

Structure (SMILES): NS(=O)(=O)OC[C@@H]1C[C@@H](n2ccc3c(N[C@H]4CCc5ccccc54)ncnc32)C[C@@H]1O [MLN-4924]
- effect of pretreatment on compound 47-mediated PTP1B and TC-PTP degradation [1]: markedly reduced

Structure (SMILES): COc1cc(CC(=O)N[C@@H](Cc2ccccc2)C(=O)N[C@@H](Cc2ccc(C(F)(F)P(=O)(O)O)cc2)C(=O)N[C@@H](CCCCNC(=O)c2ccc(C)c(Br)c2)C(=O)NCc2cccc(CC(=O)N[C@H](C(=O)N3C[C@@H](O)C[C@H]3C(=O)N[C@@H](C)c3ccc(-c4scnc4C)cc3)C(C)(C)C)c2)ccc1O [cis-47] ({Phenylacetyl(4-OH,3-OMe)}-F[F2Pmp]K(Benzoyl(3-Br,4-Me))[NHCH2(1,3-C6H4)CH2CO][Tle][cisHyp]-X1)
- TC-PTP degradation (TC-PTP [8]): failed to degrade
- IC50 (PTP1B [4]): 25.1 ± 1.6 nM
- IC50 (TC-PTP [5]): 29.7 ± 2.1 nM
- PTP1B degradation (PTP1B [9]): failed to degrade

Structure (SMILES): Nc1cccc2c1CN(C1CCC(=O)NC1=O)C2=O (stereo not shown) [lenalidomide]
- effect of pretreatment on compound 47-mediated PTP1B and TC-PTP degradation [1]: had no effect
